Legend:
[1] = target: T1, Human GPR40 (Homo sapiens, UniProt O14842); assay: FLIPR assay: agonist-induced calcium mobilization in GPR40/CHO NFAT BLA cells; format: cell-based; parameters: expressed in transfected cells; host or cells: CHO cells stably expressing NFAT BLA (beta-lactamase)
Excerpt: (§1) Human and mouse GPR40 stable cell-lines were generated in CHO cells stably expressing NFAT BLA (Beta-lactamase). A human GPR40 stable cell-line was generated in HEK cells stably expressing the aequorin expressing reporter. The expression plasmids were transfected using lipofectamine, LIFE TECHNOLOGIES (Carlsbad, Calif.), following manufacturer's instructions. Stable cell-lines were generated following drug selection.
FLIPR (Fluorimetric Imaging Plate Reader, Molecular Devices) assays were performed to measure agonist-induced calcium mobilization of the stable clones. For the FLIPR assay, one day before assay, GPR40/CHO NFAT BLA cells were seeded into black-wall-clear-bottom 384-well plates (Costar) at 1.4×10e4 cells/20 μL medium/well. The cells were incubated with 20 μl/well of the assay buffer (HBSS, 0.1% BSA, 20 mM HEPES, 2.5 mM probenecid, pH 7.4) containing 8 μM fluo-4, AM, 0.08% pluronic acid at room temperature for 100 minutes. Fluorescence output was measured using FLIPR. Compounds were dissolved in DMSO and diluted to desired concentrations with assay buffer. 13.3 μL/well of compound solution was added. The activities of the compounds in the examples have EC50 (effective concentration of compound to afford 50% of the maximum observed fluorescence) values listed in Table I.

[2] = target: T1, Human GPR40; assay: Inositol phosphate turnover (IP1) assay in HEK cells stably expressing human GPR40; format: cell-based; parameters: expressed in transfected cells; conditions: HEK cells stably expressing human GPR40, 3H-inositol labeling, 60 min compound incubation
Protocol: as §1
The assay is performed in a 96-well format. HEK cells stably expressing human GPR40 are plated to be 60-80% confluent within 72 h. After 72 h, the plates are aspirated and the cells washed with inositol-free DMEM (ICN). The wash media is replaced with 150 μL of 3H-inositol labeling media (inositol-free media containing 0.4% human albumin or 0.4% mouse albumin, 1× pen/strep antibiotics, glutamine, 25 mM HEPES to which is added 3H-myo-inositol NEN #NET114A 1 mCi/mL, 25 Ci/mmol diluted 1:150 in loading media with a final specific radioactivity of 1 μCi/150 μL). Alternatively, the human and mouse albumin can be added after the overnight labeling step before the addition of LiCl.
The assay is typically run the next day after 18 h labeling. On the day of the assay, 5 μL of 300 mM LiCl is added to all wells and incubated at 37 degrees for 20 min. 0.75 μL of 200× compounds are added and incubated with the cells for 60 min at 37 degrees. The media is then aspirated off and the assay terminated with the addition of 60 μL 10 mM formic acid. The cells are lysed for 60 min at room temperature. 15-30 μL of lysate is mixed with 70 μL/1 mg YSi SPA beads AMERSHAM (United Kingdom) in clear bottom Isoplates. The plates are shaken for 2 h at room temperature. Beads are allowed to settle and the plates are counted in the Wallac MICROBETA instrument. The activities of the compounds in the examples have EC50 (effective concentration of compound to afford 50% of the maximum observed […]) values listed in Table I.

T1 sequence (O14842 whole entry): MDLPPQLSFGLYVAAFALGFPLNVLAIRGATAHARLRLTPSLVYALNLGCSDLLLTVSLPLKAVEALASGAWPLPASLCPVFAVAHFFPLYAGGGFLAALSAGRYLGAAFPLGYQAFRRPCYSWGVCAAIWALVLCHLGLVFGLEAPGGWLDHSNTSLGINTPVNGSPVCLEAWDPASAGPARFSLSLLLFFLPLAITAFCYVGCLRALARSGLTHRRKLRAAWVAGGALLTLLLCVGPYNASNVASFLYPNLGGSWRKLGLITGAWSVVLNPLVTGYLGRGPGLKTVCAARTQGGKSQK

Structure (SMILES)	EC50 [1] [nM]	EC50 [2] [nM]
Cc1cc(OCCCS(C)(=O)=O)nc(C)c1-c1cccc(COc2ccc3c(c2)C[C@H]2[C@H](C(=O)O)[C@@H]32)c1 [Example 4, (1S,1aS,6aR)-4-[(3-{2,4-dimethyl-6-[3-(methylsulfonyl)propoxy]pyridin-3-yl}benzyl)oxy]-1,1a,6,6a-tetrahydrocyclopropa[a]indene-1-carboxylic acid]	89.1	15
Cc1cc(OCCCS(C)(=O)=O)nc(C)c1-c1cccc(COc2ccc3c(c2)C[C@H]2[C@H](C(=O)O)[C@@H]32)c1C [Example 7, 4-{3-[6-(3-Methane-sulfonyl-propoxy)-2,4-dimethyl-pyridin-3-yl]-2-methyl-benzyloxy}-1,1a,6,6a-tetrahydro-cyclopropa[a]indene-1-carboxylic acid]	98	
Cc1cc(OCCCS(C)(=O)=O)ncc1-c1cccc(COc2ccc3c(c2)C[C@H]2[C@H](C(=O)O)[C@@H]32)c1C [Example 8, 4-{3-[6-(3-Methanesulfonyl-propoxy)-4-methyl-pyridin-3-yl]-2-methyl-benzyloxy}-1,1a,6,6a-tetrahydro-cyclopropa[a]indene-1-carboxylic acid]	232	
Cc1cc(OC2CCS(=O)(=O)CC2)nc(C)c1-c1ccc(F)c(COc2ccc3c(c2)C[C@H]2[C@H](C(=O)O)[C@@H]32)c1 [Example 9, 4-{5-[6-(1,1-Dioxo-hexahydro-l16-thiopyran-4-yloxy)-2,4-dimethyl-pyridin-3-yl]-2-fluoro-benzyloxy}-1,1a,6,6a-tetrahydro-cyclopropa[a]indene-1-carboxylic acid]	99	
Cc1cc(OC2CCS(=O)(=O)CC2)ncc1-c1ccc(F)c(COc2ccc3c(c2)C[C@H]2[C@H](C(=O)O)[C@@H]32)c1 [Example 10, 4-{5-[6-(1,1-Dioxo-hexahydro-l16-thiopyran-4-yloxy)-4-methyl-pyridin-3-yl]-2-fluoro-benzyloxy}-1,1a,6,6a-tetrahydro-cyclopropa[a]indene-1-carboxylic acid]	93.1	
Cc1nc(NCCCS(C)(=O)=O)ccc1-c1cccc(COc2ccc3c(c2)C[C@H]2[C@H](C(=O)O)[C@@H]32)c1 [Example 12, 4-{3-[6-(3-Methanesulfonyl-propylamino)-2-methyl-pyridin-3-yl]-benzyloxy}-1,1a,6,6a-tetrahydro-cyclopropa[a]indene-1-carboxylic acid]	123	
Cc1cc(OC2CCS(=O)(=O)CC2)nc(C)c1-c1cccc(COc2ccc3c(c2)C[C@H]2[C@H](C(=O)O)[C@@H]32)c1 [Example 13, 4-{3-[6-(1,1-Dioxo-hexahydro-l16-thiopyran-4-yloxy)-2,4-dimethyl-pyridin-3-yl]-benzyloxy}-1,1a,6,6a-tetrahydro-cyclopropa[a]indene-1-carboxylic acid]	102	
Cc1cc(NCCCS(C)(=O)=O)ncc1-c1ccc(F)c(COc2ccc3c(c2)C[C@H]2[C@H](C(=O)O)[C@@H]32)c1 [Example 14, 4-{2-Fluoro-5-[6-(3-methanesulfonyl-propylamino)-4-methyl-pyridin-3-yl]-benzyloxy}-1,1a,6,6a-tetrahydro-cyclopropa[a]indene-1-carboxylic acid]	145	83.5
Cc1cc(NCCCS(C)(=O)=O)ncc1-c1cccc(COc2ccc3c(c2)C[C@H]2[C@H](C(=O)O)[C@@H]32)c1 [Example 15, 4-{3-[6-(3-Methanesulfonyl-propylamino)-4-methyl-pyridin-3-yl]-benzyloxy}-1,1a,6,6a-tetrahydro-cyclopropa[a]indene-1-carboxylic acid]	317	
Cc1cc(NCCCS(C)(=O)=O)ncc1-c1cccc(COc2ccc3c(c2)C[C@H]2[C@H](C(=O)O)[C@@H]32)c1C [Example 16, 4-{3-[6-(3-Methanesulfonyl-propylamino)-4-methyl-pyridin-3-yl]-2-methyl-benzyloxy}-1,1a,6,6a-tetrahydro-cyclopropa[a]indene-1-carboxylic acid]	4280	
Cc1nc(OC2CCS(=O)(=O)CC2)ccc1-c1cccc(COc2ccc3c(c2)C[C@H]2[C@H](C(=O)O)[C@@H]32)c1C [Example 17, 4-{3-[6-(1,1-Dioxo-hexahydro-l16-thiopyran-4-yloxy)-2-methyl-pyridin-3-yl]-2-methyl-benzyloxy}-1,1a,6,6a-tetrahydro-cyclopropa[a]indene-1-carboxylic acid]	252	
CS(=O)(=O)CCCOc1ccc(-c2cccc(COc3ccc4c(c3)C[C@H]3[C@H](C(=O)O)[C@@H]43)c2)c(CO)n1 [Example 18, 4-{3-[2-Hydroxymethyl-6-(3-methanesulfonyl-propoxy)-pyridin-3-yl]-benzyloxy}-1,1a,6,6a-tetrahydro-cyclopropa[a]indene-1-carboxylic acid]	206	

Compounds with a lower EC50 [1], results first:

EC50 [1] [nM]	EC50 [2] [nM]	Structure (SMILES)
46	7.3	Cc1nc(OCCCS(C)(=O)=O)ccc1-c1ccc(F)c(COc2ccc3c(c2)C[C@H]2[C@H](C(=O)O)[C@@H]32)c1 [Example 1, (1S,1aS,6aR)-4-[(2-fluoro-5-{2-methyl-6-[3-(methylsulfonyl)propoxy]pyridin-3-yl}benyzyl)oxy]-1,1a,6,6a-tetrahydrocyclopropa[a]indene-1-carboxylic acid]
70.2	18.5	Cc1nc(OC2CCS(=O)(=O)CC2)ccc1-c1ccc(F)c(COc2ccc3c(c2)C[C@H]2[C@H](C(=O)O)[C@@H]32)c1 [Example 2, (1S,1aS,6aR)-4-[(5-{6-[(1,1-dioxidotetrahydro-2H-thiopyran-4-yl)oxy]-2-methylpyridin-3-yl)-2-fluorobenzyl]oxy}-1,1a,6,6a-tetrahydrocyclopropa[a]indene-1-carboxylic acid]
59.9		Cc1nc(N2CCC(S(C)(=O)=O)CC2)ccc1-c1cccc(COc2ccc3c(c2)C[C@H]2[C@H](C(=O)O)[C@@H]32)c1 [Example 3, (1S,1aS,6aR)-4-((3-(2-Methyl-6-(4-(methylsulfonyl)piperidin-1-yl)pyridin-3-yl)benzyl)oxy)-1,1a,6,6a-tetrahydrocyclopropa[a]indene-1-carboxylic acid]
57.4	22.3	Cc1cc(OCCCS(C)(=O)=O)nc(C)c1-c1ccc(F)c(COc2ccc3c(c2)C[C@H]2[C@H](C(=O)O)[C@@H]32)c1 [Example 6, 4-{2-Fluoro-5-[6-(3-methanesulfonyl-propoxy)-2,4-dimethyl-pyridin-3-yl]-benzyloxy}-1,1a,6,6a-tetrahydro-cyclopropa[a]indene-1-carboxylic acid]
55.9	43.5	Cc1nc(NCCCS(C)(=O)=O)ccc1-c1ccc(F)c(COc2ccc3c(c2)C[C@H]2[C@H](C(=O)O)[C@@H]32)c1 [Example 11, 4-{2-Fluoro-5-[6-(3-methanesulfonyl-propylamino)-2-methyl-pyridin-3-yl]-benzyloxy}-1,1a,6,6a-tetrahydro-cyclopropa[a]indene-1-carboxylic acid]
5.5		Cc1cc(OCCCS(C)(=O)=O)ncc1-c1ccc(F)c(COc2ccc3c(c2)C[C@H]2[C@H](C(=O)O)[C@@H]32)c1 [Example 19, (1S,1aS,6aR)-4-[(2-fluoro-5-{4-methyl-6-[3-(methylsulfonyl)propoxy]pyridin-3-yl}benzyl)oxy]-1,1a,6,6a-tetrahydrocyclopropa[a]indene-1-carboxylic acid]
47.4		Cc1cc(OCCCS(C)(=O)=O)nc(C)c1-c1ccc(F)c(COc2ccc3c(c2)C[C@H]2[C@H](C(=O)O)[C@@H]32)c1F [Example 21, 4-(2,6-difluoro-3-[6-(3-methanesulfonyl-propoxy)-2,4-dimethyl-pyridin-3-yl]-benzyloxy)-1,1a,6,6a-tetrahydro-cyclopropa[a]indene-1-carboxylic acid]
58.9		Cc1cc(OCCCS(C)(=O)=O)ncc1-c1ccc(F)c(COc2ccc3c(c2)C[C@H]2[C@H](C(=O)O)[C@@H]32)c1F [Example 22, 4-(2,6-difluoro-3-[6-(3-methanesulfonyl-propoxy)-4-methyl-pyridin-3-yl]-benzyloxy)-1,1a,6,6a-tetrahydro-cyclopropa[a]indene-1-carboxylic acid]

Reference: patent US9834563B2 (Merck Sharp & Dohme Corp., priority 2013, dated 2017)
